In brackets after ≈: the same amount, converted by molar mass. Entries after “also recorded” stand apart in the source; their conditions may differ. Where two headings read alike, the source gives them in different places. No end group written: not given here.
What was measured:
MSSA ATCC 25923 [1] = conditions: for MIC in the presence of 50% human serum: MHB with 50% human serum, broth microdilution; for MIC, MHB: Table S1, MHB without serum, Corning NonTC microtitre plates (CLS3370)
Description: MSSA ATCC 25923 was purchased from the American Type Culture Collection (Manassas, VA). Mueller-Hinton broth (MHB; Bacto Laboratories Pty. Ltd.) was used to grow MSSA for determination of in vitro antibacterial activity in the presence and absence of 50% human serum (Life Technologies Australia, Melbourne, Australia) and time-kill assays. Luria-Bertani (LB) medium (Difco) and MHB adjusted with Ca^2+ (25 mg/liter) and Mg^2+ (12.5 mg/liter) (CA-MHB) were used for bacterial growth in the membrane depolarization assay and TEM, respectively. The phospholipids used for SPR analysis, 1-palmitoyl-2-oleoyl-sn-glycero-3-phosphoglycerol (POPG), 1-palmitoyl-2-oleoyl-sn-glycero-3-phosphocholine (POPC), and 1-palmitoyl-2-oleoyl-sn-glycero-3-phosphoethanolamine (POPE), were purchased from Auspep Pty. Ltd. (Melbourne, Australia).
(§1) MICs against MSSA ATCC 25923 were measured by broth microdilution according to the Clinical and Laboratory Standards Institute (CLSI) M7-A7 methodology ([30]). Briefly, serial 2-fold dilutions of each antibiotic were added into Costar nontreated polystyrene 96-well plates, and each well was inoculated with 50 μl of MSSA in MHB to a final concentration of approximately 5 × 10^5 CFU/ml. […] The dilution representing the MIC and two of the more and less concentrated dilutions were plated out onto Trypticase soy agar plates and enumerated to determine viable CFU/ml ([31]).

[2] = tested on: MurG-catalyzed reaction of peptidoglycan biosynthesis; conditions: relative to MIC against MSSA ATCC 25923; cited from earlier work
[3] = tested on: transglycosylation step of peptidoglycan biosynthesis; conditions: relative to MIC against MSSA ATCC 25923; cited from earlier work
[4] = SPR binding to lipid bilayers on Biacore L1 chip; conditions: for normalized antibiotic bound to the three lipid bilayers (result in words): 10 μM, normalized to molecular weight and RULipid, Fig. 3B, n = 3
Description: Lipid stock solutions were prepared in chloroform and mixed at the described mass composition of POPC, POPC/POPG (8:2, wt/wt) and POPC/POPE (8:2, wt/wt) ([33]), and the chloroform was evaporated as previously described ([34]). The lipids were resuspended in 1 ml of filtered (0.22-μm pore size) running buffer (phosphate-buffered saline [PBS]; pH 7.3) and then sonicated for 25 min in 5-min intervals. Small unilamellar vesicles (SUVs) were prepared by extrusion through a polycarbonate filter with a 50-nm pore diameter ([35]).
SPR experiments were carried out with a Biacore T200 system (GE Health, Australia) using a Biacore vesicle capture (L1) sensor chip, which has lipophilic groups covalently attached to carboxymethylated dextran that facilitates direct lipid bilayer deposition ([34], [36]). All measurements were undertaken at a temperature of 25°C to maintain the lipid bilayer fluidity ([34]). SUVs at a total lipid concentration of 0.5 mg/ml were immediately passed across the chip surface for 60 min at a low flow rate of 2 μl/min, following three 30-s injections of 20 mM 3-cholamidopropyl-dimethylammonio-1-propane sulfonate (CHAPS) solution at a high flow rate of 30 μl/min to completely remove the captured vesicles from the sensor chip. To remove any multilamellar structures from the lipid surface and to stabilize the baseline, 10 mM NaOH was injected for 1 min at 50 μl/min. The coverage extent of the surface was later determined by a 5-min injection of 0.1 mg/ml bovine serum albumin (BSA) at a flow rate of 10 μl/min.
The antibiotics were serially diluted in running buffer and then injected sequentially from the lowest (0.01 μM) to the highest (10 μM) concentration at a flow rate of 20 μl/min for 180 s, followed by a dissociation of 300 s and a 1-min regeneration with 10 mM HCl at a flow rate of 10 μl/min. SPR experiments were performed in triplicate. The actual amount of antibiotic bound to each lipid bilayer was corrected by subtraction of the bulk refractive index difference (buffer control) and then normalized by dividing the antibiotic-bound resonance units (RUBound) obtained in the SPR sensorgrams (see Fig. 3A, below) by the corresponding antibiotic molecular weight and the resonance units of the individual lipid vesicle captured on the chip surface (RULipid) (see Fig. S1 in the supplemental material) by using the following equation: normalized antibiotic bound = (10^3 × RUBound)/(molecular weight × RULipid). Normalization against molecular weight and RULipid was necessary, as SPR units are mass dependent and RULipid values vary according to lipid type ([37]).

MSSA and MRSA strains = conditions: cited from earlier work
Source text: The importance of the membrane depolarization and bactericidal killing in vivo is difficult to quantify due to the limited published pharmacokinetic (PK) studies ([18], [19]), as well as its nonsystemic oral administration in human clinical trials. In addition, MIC determinations can be highly dependent on plate type, serum, and BSA ([18], [41]).

MSSA ATCC 25923 [5] = test: TEM examination of bacterial ultrastructure; format: cell-based, Staphylococcus aureus; conditions: 3 h, 37°C, CA-MHB
Description: After centrifugation (8,000 × rpm, 3 min), the pellets were resuspended in 1 ml of 3% (vol/vol) glutaraldehyde in 0.1 M sodium cacodylate. Glutaraldehyde–fixed samples were washed twice with 0.1 M sodium cacodylate. To postfit cells, 1% (wt/vol) osmium tetraoxide was added. After the wash step, samples were stained with 2% (wt/vol) uranyl acetate in 50% ethanol. Samples were then dehydrated with graded ethanol solutions and infiltrated with Epon resin (ProSciTech, Townsville, Australia). All processes were performed on a Pelco 34700 Biowave microwave oven (Ted Pella Inc., Redding, CA). Ultrathin sections were cut at 60 to 70 nm by using a UC6 ultramicrotome (Leica). The sections were examined in a JEM 1011 TEM operated at 80 kV and photographed using a digital camera.

MSSA ATCC 25923 [6] = conditions: for MBC, 50% Human serum: Table S1, MHB with 50% human serum; for MBC, MHB: Table S1, MHB without serum, clear wells plated onto agar, 37°C overnight; for MBC, 10% Human serum: Table S1, MHB with 10% human serum
Description: as §1, with “([31]). […]” for “([31]).”
25923 in MHB media in the presence and absence of Human serum (10% and 50%) in
Corning NonTC microtitre plates (CLS3370)
a The MBCs were determined by plating out the clear wells onto an agar plate and were incubated at
37°C overnight. Each colony represents one viable bacterium. […]

MSSA ATCC 25923 [7] = test: Time-kill studies (CLSI M26-A); format: cell-based, Staphylococcus aureus
Description: Time-kill studies were carried out based on guideline M26-A of the CLSI ([32]), using Costar nontreated polystyrene 96-well plates. […] Culture aliquots were mixed with the charcoal suspension (25 mg/ml) to minimize antibiotic carryover. Viable cell counts were determined after 0, 0.5, 1, 2, 4, 6, 8, and 24 h of incubation at 37°C by plating serially diluted samples onto Trypticase soy agar plates. Bactericidal activity was defined as a ≥3-log10 CFU/ml decrease, in comparison with the baseline, after 24 h of incubation ([32]).

MSSA ATCC 25923 [8] = test: Membrane depolarization assay with DiSC3(5); format: cell-based, Staphylococcus aureus; conditions: for membrane depolarization (result in words): 0.1 to 30 μM, Fig. 4, n = 3
Description: Antibiotic-induced bacterial cytoplasmic membrane depolarization was determined by using the fluorescent dye 3,3-dipropylthiacarbocyanine [DiSC3(5); Sigma-Aldrich, Australia] as previously described ([38]) with a high-throughput modification. Briefly, mid-logarithmic-phase MSSA ATCC 25923 cells were collected by centrifugation (5,000 × rpm, 10 min), washed once and diluted to approximately 5 × 10^7 CFU/ml in buffer (5 mM HEPES, 5 mM glucose; pH 7.2). The cell suspension was incubated with 0.4 μM DiSC3(5) until dye uptake was maximal, as indicated by a stable reduction in fluorescence of assay medium. KCl at 100 mM was added to equilibrate the cytoplasmic and external K^+ concentrations. A 90-μl aliquot of cell suspension was transferred into an Optiplate 96-well white microplate (PerkinElmer Corp., Australia), and 10 μl of antibiotic was added, to yield a series of solutions ranging from 0.1 to 30 μM. A blank with only cell suspension and dye was used for background subtraction. The fluorescence intensity was monitored in real time by using a BMG Labtech PolarStar Omega multimode reader fitted with 620-10 and 665-10 excitation and emission filters, respectively, at an excitation wavelength of 622 nm and an emission wavelength of 670 nm. The membrane depolarization assays were performed in triplicate, and the fluorescence leakage (FL) was defined by the following equation: FL = (FF − FB) − (FI − FB). Here, FF was the final fluorescence intensity in assay medium after 30 min of treatment with antibiotic, FI was the initial fluorescence intensity of the cell suspension, and FB was the fluorescence intensity of the blank.

[9] = set-up: method as in PMID 23872123, PMID 9791177, PMID 16531990; conditions: phospholipid bilayers; cited from earlier work
[10] = set-up: method as in PMID 23872123, PMID 9791177, PMID 16531990; conditions: Lipid II pyrophosphate moiety; cited from earlier work
[11] = MHB, broth microdilution CLSI M7-A7, ~5 × 10^5 CFU/ml, 24 h, 37°C, Costar nontreated polystyrene 96-well plates

Molecule	normalized antibiotic bound to the three lipid bilayers (result in words) [4]	MBC, 50% Human serum (MSSA ATCC 25923 [6])	MBC, MHB (MSSA ATCC 25923 [6])	membrane depolarization (result in words) (MSSA ATCC 25923 [8]; 30 min treatment)	MIC in the presence of 50% human serum (MSSA ATCC 25923 [1]; 24 h, 37°C)	MBC, 10% Human serum (MSSA ATCC 25923 [6])	MIC (MSSA ATCC 25923 [1]; [11])	MIC, MHB (MSSA ATCC 25923 [1])	also measured
GLFDVIKKVASVIGGL-NH2 [citropin 1.1]									MIC (MSSA ATCC 25923 [1]; ATCC 25923, 24 h): 32 µg/mL
ramoplanin	POPC:POPG (8:2) > POPC > POPC:POPE (8:2)	0.5 µg/mL	8/2	dose-dependent membrane depolarization but less efficiently than nisin	0.5 µg/mL				IC50, MurG-catalyzed reaction [2]: 20 × MIC; 50% inhibitory concentration (IC50), transglycosylation [3]: 0.25 × MIC; SPR dissociation after completion of injection ([4]; 0.01 to 1 μM): complete dissociation; SPR association with membranes at low concentrations ([4]; 0.01 to 1 μM, PBS pH 7.3, 25°C): negligible association; SPR binding response (RUBound) ([4]; 3 and 10 μM, both anionic and zwitterionic membranes, 180 s injection, PBS pH 7.3, 25°C): ~6,000 RU; concentration at which binding to anionic and zwitterionic membranes occurs ([4]; dose-dependent): ≥ 3 µM; effect of 50% human serum on MIC (MSSA and MRSA strains): not affected; morphological changes by TEM (MSSA ATCC 25923 [5]; 1× MIC): deformed septa that were slightly thickened, misshapen, and lacked distinct septal midlines; also recorded: appearance of mesosome structures in cell membranes; MBC as multiple of MIC (MSSA ATCC 25923 [6]): 2 × MIC; MBC (MSSA ATCC 25923 [6]; lowest concentration yielding 99.9% reduction in initial colony count after 24 h, MHB): 4 µg/mL; time to bactericidal activity (MSSA ATCC 25923 [7]; concentrations equal to or above the MBC): less than 4 h
teicoplanin	bound preferentially to the anionic membrane over zwitterionic membranes	0.5 µg/mL	4 µg/mL	measurable but minor fluorescence leakage at concentrations significantly higher than the MIC		0.25 µg/mL	1 µg/mL	2 µg/mL	
CN[C@H](CC(C)C)C(=O)N[C@H]1C(=O)N[C@@H](CC(N)=O)C(=O)N[C@H]2C(=O)N[C@H]3C(=O)N[C@H](C(=O)N[C@H](C(=O)O)c4cc(O)cc(O)c4-c4cc3ccc4O)[C@H](O)c3ccc(c(Cl)c3)Oc3cc2cc(c3O[C@@H]2O[C@H](CO)[C@@H](O)[C@H](O)[C@H]2O[C@H]2C[C@](C)(N)[C@H](O)[C@H](C)O2)Oc2ccc(cc2Cl)[C@H]1O [vancomycin]	negligible binding to each of the three different membranes	2 µg/mL (≈ 1.38 µM)	2 µg/mL (≈ 1.38 µM)		2 µg/mL	2 µg/mL (≈ 1.38 µM)	1 µg/mL (≈ 0.69 µM)	2 µg/mL (≈ 1.38 µM)	morphological changes by TEM (MSSA ATCC 25923 [5]; 16× MIC): did not cause septal deformation or loss of midline; reduction in viable count (MSSA ATCC 25923 [7]; vancomycin at the MBC and above for 8 h): > 3 log10 CFU/ml; fluorescence leakage (MSSA ATCC 25923 [8]; 12× MIC, 30 min): no leakage; MIC, 10% Human serum (MSSA ATCC 25923 [1]; Table S1, MHB with 10% human serum, Corning NonTC plates): 1/2; MIC, 50% Human serum (MSSA ATCC 25923 [1]; Table S1, MHB with 50% human serum, Corning NonTC plates): 2 µg/mL (≈ 1.38 µM)
nisin	no binding to either anionic or zwitterionic phospholipid bilayers			dramatic membrane depolarization at the MIC and above			32 µg/mL		Kd [9]: 100 µM; Kd [10]: 10 nM; concentration at which membrane depolarization occurs (MSSA ATCC 25923 [8]; 30 min treatment, DiSC3(5), normalized to citropin 1.1 at 10 μM, ramoplanin 3× MIC gives similar extent as […] MIC nisin): 0.25 × MIC

From PMC4249368 (Antimicrobial Agents and Chemotherapy, 2014)
